Data from US5721234A, “Glutamate receptor antagonists: fused cycloalkylouinoxalinediones” (Warner-Lambert Company, priority 1995, dated 1998).
Structures can show the parent of a compound that is named as a salt.

Tests used:
[1] = target: T1, glycine site of the NMDA receptor (Rattus norvegicus, UniProt P35439); assay: Glycine site of the NMDA receptor binding affinity (Jones et al.)
T1 construct: from tissue

[2] = tested on: AMPA-induced neuronal damage in primary cortical neuronal cultures; assay: AMPA-induced neuronal damage in primary cortical neuronal cultures, LDH release; type: cell-based; details: long-term exposure to 100 μM AMPA
Procedure: To functionally measure AMPA antagonist activity, the effects of the agent on AMPA-induced neuronal damage in primary cortical neuronal cultures was examined using techniques similar to those outlined by Koh, J.-Y. et al., J. Neurosci, 1990; 10:693. The neuronal damage produced by long-term exposure to 100 μM AMPA was measured by the release of the cytosolic enzyme lactate dehydrogenase (LDH).
Selected compounds of the present invention were tested by one or more of the above-described assays. The IC50 values set forth in Tables 1 and 2 are a measure of the concentration (μM) of the test substance which inhibits 50% of an induced release from the tested receptors.

[3] = target: kainate site (non-NMDA receptor); assay: Kainate site (non-NMDA receptor) binding affinity (London and Coyle)
AMPA receptors = assay: AMPA receptor binding affinity (Honore et al.)
[4] = Table 1, cyclohexyl-fused analogs
[5] = Table 2, cyclopentyl-fused analogs

| IC50 [1, 4] | IC50 [3, 4] | IC50 (AMPA receptors; [4]) | IC50 [1, 5] | IC50 [3, 5] | IC50 (AMPA receptors; [5]) | SMILES | IC50 [2, 4] | IC50 [2, 5] |
| --- | --- | --- | --- | --- | --- | --- | --- | --- |
| 0.28 µM | 0.82 µM | 0.27 µM |  |  |  | O=C(NC1CCc2c([N+](=O)[O-])cc3[nH]c(=O)c(=O)[nH]c3c2C1)C1CCNCC1 (stereo not shown) [Example 40, 4-(6-nitro-2,3-dioxo-1,2,3,4,7,8,9,10-octahydrobenzo[f]quinoxaline-9-ylcarbamoyl)-piperidine hydrochloride] | 25 µM |  |
|  |  |  | > 1 µM | 1.1 µM | 0.58 µM | O=C(NC1Cc2c([N+](=O)[O-])cc3[nH]c(=O)c(=O)[nH]c3c2C1)C1(O)OC(O)C(O)C1O (stereo not shown) [Example 63, 2,3,4,5-Tetrahydroxy-tetrahydro-furan-2-carboxylic acid (6-nitro-2,3-dioxo-2,3,4,7,8,9-hexahydro-1H-cyclopenta[f]quinoxalin-8-yl)-amide] |  | > 30 µM |
|  |  |  | 0.4 µM | 0.48 µM | 0.11 µM | O=C(NC1Cc2c([N+](=O)[O-])cc3[nH]c(=O)c(=O)[nH]c3c2C1)c1ccccc1 (stereo not shown) [Example 39, N-(6-nitro-2,3-dioxo-4,7,8,9-tetrahydro-1H-cyclopenta[f]quinoxalin-8-yl)-benzamide] |  | 18 µM |
| 0.09 µM | 0.9 µM | 0.42 µM |  |  |  | O=C(NC1CCc2c([N+](=O)[O-])cc3[nH]c(=O)c(=O)[nH]c3c2C1)c1ccccc1 (stereo not shown) [Example 36, N-(6-nitro-2,3-dioxo-1,2,3,4,7,8,9,10-octahydrobenzo[f]quinoxalin-9-yl)-benzamide] | 30 µM |  |
| 0.5 µM |  |  |  |  |  | O=C(NC1CCc2c([N+](=O)[O-])cc3[nH]c(=O)c(=O)[nH]c3c2C1)C1CCCCC1 (stereo not shown) [Example 37, N-(6-nitro-2,3-dioxo-1,2,3,4,7,8,9,10-octahydrobenzo[f]quinoxalin9-yl)cyclohexylamide] | 28 µM |  |
| 1.8 µM | 2.8 µM | 0.7 µM |  |  |  | NC1CCc2c([N+](=O)[O-])cc3[nH]c(=O)c(=O)[nH]c3c2C1 (stereo not shown) [Example 15, 9-amino-6-nitro-1,4,7,8,9,10-hexahydro-benzo[f]quinoxaline-2,3-dione] | 20 µM |  |
|  |  |  | < 1 µM | 0.28 µM | 0.12 µM | O=C(NC1Cc2c([N+](=O)[O-])cc3[nH]c(=O)c(=O)[nH]c3c2C1)C1CCNCC1 (stereo not shown) [Example 35, 4-(6-nitro-2,3-dioxo-2,3,4,7,8,9-hexahydro-1H-cyclopenta[f]quinoxalin-8-ylcarbamoyl)piperidine hydrochloride] |  |  |
|  |  |  | 1.3 µM | 0.9 µM | 0.4 µM | CC(=O)NC1Cc2c([N+](=O)[O-])cc3[nH]c(=O)c(=O)[nH]c3c2C1 (stereo not shown) [Example 32, N-(6-nitro-2,3-dioxo-2,3,4,7,8,9-hexahydro-1H-cyclopenta[f]quinoxalin-8-yl)-acetamide] |  |  |
|  |  |  | 12 µM | 2.6 µM | 0.91 µM | CN(C)C1Cc2c([N+](=O)[O-])cc3[nH]c(=O)c(=O)[nH]c3c2C1 (stereo not shown) [Example 90, 8-Dimethylamino-6-nitro-4,7,8,9-tetrahydro-1H-cyclopenta[f]quinoxaline-2,3-dione] |  |  |
| 1.5 µM | 3 µM | 17 µM |  |  |  | O=c1[nH]c2cc(Br)c3c(c2[nH]c1=O)CC(O)CC3 (stereo not shown) [Example 7, 6-bromo-9-hydroxy-1,4,7,8,9,10-hexahydro-benzo[f]quinoxaline-2,3-dione] |  |  |
| > 100 µM | > 100 µM | 25 µM |  |  |  | O=c1[nH]c2cc(Br)c3c(c2[nH]c1=O)CC(NCc1ccccc1)CC3 (stereo not shown) [Example 19, 9-benzylamino-6-bromo-1,4,7,8,9,10-hexahydro-benzo[f]quinoxaline-2,3-dione] |  |  |
|  |  |  | 0.3 µM | 0.18 µM | 0.05 µM | O=C(NC1Cc2c([N+](=O)[O-])cc3[nH]c(=O)c(=O)[nH]c3c2C1)c1cccs1 (stereo not shown) [Example 54, Thiophene-2-carboxylic acid (6-nitro-2,3-dioxo-2,3,4,7,8,9-hexahydro-1H-cyclopenta[f]quinoxaline-8-yl)-amide] |  |  |
